In patent US20050124575A1, “Remedies” (Takara Bio Inc., priority 2002, published 2005):

Test system: mouse
Assay: Acute toxicity after oral or intraperitoneal administration
Format: in vivo
Settings: orally or intraperitoneally administered to a mouse at 1 g/kg

With agarose the acute toxicity was “No acute toxicity”.
